Results as given in US12433865B2, “Compositions comprising PGI2-receptor agonists and processes for the preparation thereof” (Arena Pharmaceuticals, Inc., priority 2018, dated 2025).

Test: Release (dissolution) profile of capsules, USP Apparatus 2 (paddle)
Assay type: physicochemical
Settings: for Release rate (percentage of Compound 1 released over time): 0.04 mg capsule, Poloxamer 188:food grade GMS 50:50, T = 0 (pre-curing)
Description: USP Apparatus 2 (Paddle Apparatus) is described, for example, in the United States Pharmacopeial Convention, Feb. 1, 2012, Chapter <711> (“Dissolution”), incorporated by reference herein in its entirety. See http://www.usp.org/sites/default/files/usp_pdf/EN/USPNF/revisions/m99470-gc_711.pdf. The assembly from Apparatus 1 is used, except that a paddle formed from a blade and a shaft is used as the stirring element. The shaft is positioned so that its axis is not more than 2 mm from the vertical axis of the vessel at any point and rotates smoothly without significant wobble that could affect the results. The vertical center line of the blade passes through the axis of the shaft so that the bottom of the blade is flush with the bottom of the shaft. A distance of 25±2 mm between the bottom of the blade and the inside bottom of the vessel is maintained during the test. The metallic or suitably inert, rigid blade and shaft comprise a single entity. A suitable two-part detachable design may be used provided the assembly remains firmly engaged during the test. The paddle blade and shaft may be coated with a suitable coating so as to make them inert. The dosage unit is allowed to sink to the bottom of the vessel before rotation of the blade is started. A small, loose piece of nonreactive material, such as not more than a few turns of wire helix, may be attached to dosage units that would otherwise float. Other validated sinker devices may be used.
Unless otherwise specified, the release profiles for capsules were measured using USP Apparatus 2 (paddle).
All release profiles disclosed in Tables 3c-3p were measured with USP Apparatus 2 (paddle) at 50 rpm in 500 mL of aqueous sodium phosphate at a concentration of 0.05 M (pH=6.8). The values in a given table relate to capsules obtained from the same batch. Values shown represent mean values over a number of dissolution tests (“n” in each table) in each case.

O=C(O)COC[C@H]1CC[C@H](COC(=O)N(c2ccccc2)c2ccc(Cl)cc2)CC1 [Compound 1, 2-(((1r,4r)-4-(((4-chlorophenyl)(phenyl)carbamoyloxy)methyl)cyclohexyl)methoxy)acetic acid]
Release rate (percentage of Compound 1 released over time) (480 min): 72.7%
Release rate (percentage of Compound 1 released over time) (600 min): 79.8%
Release rate (percentage of Compound 1 released over time) (720 min): 83.1%
Release rate (percentage of Compound 1 released over time) (735 min): 84.6%
change of release rate after storage (0.04 mg of Compound 1 in Gelucire 50/13, storage at 40° C. and 75% RH for two weeks (FIG. 5)): rapid increase
release rate relative to immediate-release composition (0.5 mg Compound 1, Poloxamer 188:food grade GMS 70:30, 50:50 and 30:70 (FIGS. 8-10)): slower rate
release rate after storage (0.5 mg Compound 1, Poloxamer 188:food grade GMS 70:30, 50:50 and 30:70, storage at 40° C. and 75% RH for about one month (FIGS. 8-10)): substantially the same
mean value (n = 6) of % of Compound 1 released (Table 3c: size 4 capsule, 0.03 mg Compound 1, Poloxamer 188:food grade GMS 70:30, 20 min): 14.8%
mean value (n = 6) of % of Compound 1 released (Table 3c: size 4 capsule, 0.03 mg Compound 1, Poloxamer 188:food grade GMS 70:30, 30 min): 36.1%
mean value (n = 6) of % of Compound 1 released (Table 3c: size 4 capsule, 0.03 mg Compound 1, Poloxamer 188:food grade GMS 70:30, 45 min): 65.4%
mean value (n = 6) of % of Compound 1 released (Table 3c: size 4 capsule, 0.03 mg Compound 1, Poloxamer 188:food grade GMS 70:30, 60 min): 83.8%
mean value (n = 6) of % of Compound 1 released (Table 3c: size 4 capsule, 0.03 mg Compound 1, Poloxamer 188:food grade GMS 70:30, 90 min): 95.5%
mean value (n = 6) of % of Compound 1 released (Table 3c: size 4 capsule, 0.03 mg Compound 1, Poloxamer 188:food grade GMS 70:30, 120 min): 98.4%
mean value (n = 4) of % of Compound 1 released (Table 3e: size 4 capsule, 0.5 mg Compound 1, Poloxamer 188:food grade GMS 70:30, 30 min): 17.7%
mean value (n = 4) of % of Compound 1 released (Table 3e: size 4 capsule, 0.5 mg Compound 1, Poloxamer 188:food grade GMS 70:30, 60 min): 56.9%
mean value (n = 4) of % of Compound 1 released (Table 3e: size 4 capsule, 0.5 mg Compound 1, Poloxamer 188:food grade GMS 70:30, 120 min): 95.1%
mean value (n = 4) of % of Compound 1 released (Table 3f: size 4 capsule, 0.5 mg Compound 1, Poloxamer 188:food grade GMS 70:30, 30 min): 19.3%
mean value (n = 4) of % of Compound 1 released (Table 3f: size 4 capsule, 0.5 mg Compound 1, Poloxamer 188:food grade GMS 70:30, 60 min): 61.9%
mean value (n = 4) of % of Compound 1 released (Table 3f: size 4 capsule, 0.5 mg Compound 1, Poloxamer 188:food grade GMS 70:30, 120 min): 98.1%
mean value (n = 4) of % of Compound 1 released (Table 3g-1: Storage Time = 0, size 4 capsule, 0.5 mg Compound 1, Poloxamer 188:food grade GMS 70:30, 30 min): 33.0%
mean value (n = 4) of % of Compound 1 released (Table 3g-1: Storage Time = 0, size 4 capsule, 0.5 mg Compound 1, Poloxamer 188:food grade GMS 70:30, 45 min): 64.2%
mean value (n = 4) of % of Compound 1 released (Table 3g-1: Storage Time = 0, size 4 capsule, 0.5 mg Compound 1, Poloxamer 188:food grade GMS 70:30, 60 min): 86.0%
mean value (n = 4) of % of Compound 1 released (Table 3g-2 (Storage Time = 2 weeks), first line, size 4 capsule, 0.5 mg Compound 1, Poloxamer 188:food grade GMS 70:30, 30 min): 33.0%
mean value (n = 4) of % of Compound 1 released (Table 3g-2 (Storage Time = 2 weeks), first line, size 4 capsule, 0.5 mg Compound 1, Poloxamer 188:food grade GMS 70:30, 45 min): 64.2%
mean value (n = 4) of % of Compound 1 released (Table 3g-2 (Storage Time = 2 weeks), first line, size 4 capsule, 0.5 mg Compound 1, Poloxamer 188:food grade GMS 70:30, 60 min): 86.0%
mean value (n = 4) of % of Compound 1 released (Table 3g-2 (Storage Time = 2 weeks), second line, size 4 capsule, 0.5 mg Compound 1, Poloxamer 188:food grade GMS 70:30, 30 min): 34.8%
mean value (n = 4) of % of Compound 1 released (Table 3g-2 (Storage Time = 2 weeks), second line, size 4 capsule, 0.5 mg Compound 1, Poloxamer 188:food grade GMS 70:30, 45 min): 67.9%
mean value (n = 4) of % of Compound 1 released (Table 3g-2 (Storage Time = 2 weeks), second line, size 4 capsule, 0.5 mg Compound 1, Poloxamer 188:food grade GMS 70:30, 60 min): 89.4%
mean value (n = 4) of % of Compound 1 released (Table 3i: size 4 capsule, 0.5 mg Compound 1, Poloxamer 188:food grade GMS 50:50, 30 min): 7.5%
mean value (n = 4) of % of Compound 1 released (Table 3i: size 4 capsule, 0.5 mg Compound 1, Poloxamer 188:food grade GMS 50:50, 60 min): 21.1%
mean value (n = 4) of % of Compound 1 released (Table 3i: size 4 capsule, 0.5 mg Compound 1, Poloxamer 188:food grade GMS 50:50, 120 min): 41.1%
mean value (n = 4) of % of Compound 1 released (Table 3i: size 4 capsule, 0.5 mg Compound 1, Poloxamer 188:food grade GMS 50:50, 180 min): 58.9%
mean value (n = 4) of % of Compound 1 released (Table 3i: size 4 capsule, 0.5 mg Compound 1, Poloxamer 188:food grade GMS 50:50, 240 min): 75.3%
mean value (n = 4) of % of Compound 1 released (Table 3i: size 4 capsule, 0.5 mg Compound 1, Poloxamer 188:food grade GMS 50:50, 360 min): 94.3%
mean value (n = 4) of % of Compound 1 released (Table 3i: size 4 capsule, 0.5 mg Compound 1, Poloxamer 188:food grade GMS 50:50, 480 min): 100.0%
mean value (n = 4) of % of Compound 1 released (Table 3j: size 4 capsule, 0.5 mg Compound 1, Poloxamer 188:food grade GMS 50:50, 30 min): 7.8%
mean value (n = 4) of % of Compound 1 released (Table 3j: size 4 capsule, 0.5 mg Compound 1, Poloxamer 188:food grade GMS 50:50, 60 min): 19.5%
mean value (n = 4) of % of Compound 1 released (Table 3j: size 4 capsule, 0.5 mg Compound 1, Poloxamer 188:food grade GMS 50:50, 120 min): 38.6%
mean value (n = 4) of % of Compound 1 released (Table 3j: size 4 capsule, 0.5 mg Compound 1, Poloxamer 188:food grade GMS 50:50, 180 min): 56.8%
mean value (n = 4) of % of Compound 1 released (Table 3j: size 4 capsule, 0.5 mg Compound 1, Poloxamer 188:food grade GMS 50:50, 240 min): 72.9%
mean value (n = 4) of % of Compound 1 released (Table 3j: size 4 capsule, 0.5 mg Compound 1, Poloxamer 188:food grade GMS 50:50, 360 min): 90.7%
mean value (n = 4) of % of Compound 1 released (Table 3j: size 4 capsule, 0.5 mg Compound 1, Poloxamer 188:food grade GMS 50:50, 480 min): 97.4%
mean value (n = 6) of % of Compound 1 released (Table 3k: size 4 capsule, 0.03 mg Compound 1, Poloxamer 188:food grade GMS 50:50, 30 min): 8.5%
mean value (n = 6) of % of Compound 1 released (Table 3k: size 4 capsule, 0.03 mg Compound 1, Poloxamer 188:food grade GMS 50:50, 60 min): 18.0%
mean value (n = 6) of % of Compound 1 released (Table 3k: size 4 capsule, 0.03 mg Compound 1, Poloxamer 188:food grade GMS 50:50, 120 min): 39.3%
mean value (n = 6) of % of Compound 1 released (Table 3k: size 4 capsule, 0.03 mg Compound 1, Poloxamer 188:food grade GMS 50:50, 180 min): 58.6%
mean value (n = 6) of % of Compound 1 released (Table 3k: size 4 capsule, 0.03 mg Compound 1, Poloxamer 188:food grade GMS 50:50, 240 min): 75.2%
